For data set [1], the system named is S. aureus JAR060131. The data set can be described thus: Bactericidal (time-kill) kinetics. Type of data set: cell-based, Staphylococcus aureus. The note with it: 3.75 µM peptide, 1 × 10^6 CFU/mL. Here is the method:
(§1) Time-kill kinetics were evaluated against S. aureus JAR060131 and A. baumannii RUH875. Mid-logarithmic phase bacterial cultures were diluted to a final concentration of 1 × 10^6 CFU/mL in PBS. Bacteria were incubated with 0.5-, 2-, and 4-fold the LC99.9. Assays were conducted in polypropylene tubes (Micronics) with a total volume of 500 µL. Control samples consisted of bacteria incubated in PBS alone. At 1, 5, 30, and 120 min, 50 µL samples were collected and immediately added to 50 µL of 0.05% (v/v) sodium polyanethol sulfonate (SPS; Sigma-Aldrich) in PBS to neutralize residual peptide activity ([Dankert et al., 1995]). Viable bacterial counts were determined by plating 10 µL of serial 10-fold dilutions onto BA plates. Colonies were counted after 24 h of incubation at 37 °C. All conditions were performed in triplicate.

The test system of data set [2] is S. aureus LUH14616 (MRSA). The data set is described as follows: Ex vivo human skin wound infection model. Conditions: 200 µM topical, 4 h treatment, versus untreated control (Figure 4C), p < 0.001. Also on record: species or system Staphylococcus aureus. An excerpt:
Human skin from 3 donors was obtained via the Residual Tissue Biobank of the Red Cross Hospital (Beverwijk, Netherlands). The use of these coded, post-operative residual tissue samples was approved by patients through the informed opt-out-plus protocol of the Red Cross Hospital Skin ([Code-of-Conduct-for-Health-Research, 2022]) and processed for an ex vivo wound infection model as described ([Dijksteel et al., 2020]). The Wounded skin grafts were sectioned into approximately 1 cm^2 samples using a sterile scalpel and were decontaminated by immersion in 70% ethanol for 30 min, followed by three PBS washes. Samples were placed dermis-down and wound-side-up on stainless steel grids with central indentations, positioned in 12-well plates, and cultured at the air–liquid interface in DMEM at 37 °C and 5% CO2. To confine reagents to the wound area, a resin barrier (OpalDam; Ultradent) was applied to the wounded area and polymerized using a hand-held UV light (Valo X) for 10 s. The wounds were then topically infected with 10 µL of S. aureus LUH14616 suspension of 1 × 10^7 CFU/mL (final dose: 1 × 10^5 CFU/graft) in PBS for 1 h, followed by topical application of 10 µL of peptide solution for 4 h. Chlorhexidine (0.5% (v/v) in 70% ethanol; Entick B.V.) and PBS were used as positive and negative controls, respectively. After treatment, tissue samples were transferred to polypropylene vials containing 1 mL PBS supplemented with 0.025% (v/v) SPS and a 7 mm stainless steel bead. Homogenization was performed using a MagnaLyser System (Roche) with three 30-s cycles at 7,000 rpm, with 30 s of cooling on ice between cycles. Homogenates were 10-fold serially diluted in PBS, and 100 µL aliquots were plated on BA plates. CFUs were enumerated after overnight incubation at 37 °C.

Data set [3] has as its system human skin fibroblast cells (BJ). The data set can be described thus: Cytotoxicity (WST-1 and LDH). The note with it: 24 h exposure, triplicate. Type of data set: cell-based. Here is the method:
(§2) Cells (5 × 10^5 cells/mL) were seeded in 96-well plates (100 μL/well; Thermo Scientific) and allowed to adhere for 24 h. After adhesion, monolayers were exposed to two-fold serial dilutions of the tetrameric and reference peptides (final concentrations: 60–0.05 µM) in fresh DMEM containing 2% (v/v) FBS, and incubated for 24 h at 37 °C in a humidified 5% CO2 atmosphere. Cell viability was assessed using the water-soluble tetrazolium salt (WST-1; Roche) assay, and membrane integrity was measured using the lactate dehydrogenase (LDH) release assay (Abcam), following manufacturer instructions. Absorbance was measured using the Synergy H1 microplate reader (Biotek). Results are expressed as percentages relative to untreated control (for WST-1) and positive lysis control (for LDH) and all experiments were performed in triplicate.
On the technique in general: Tetrazolium assays rely on reduction of a dye to a coloured formazan, in cell work by metabolically active cells.

Data set [4] concerns HaCaT human keratinocytes. The data set is described as follows: Cytotoxicity (WST-1 and LDH). Type of data set: cell-based. The note with it: 24 h exposure, triplicate. Here is the method:
as §2

The subject of data set [5] is A. baumannii RUH875. The data set is described as follows: Bactericidal (time-kill) kinetics. The data set is classed as cell-based, Acinetobacter baumannii. The note with it: within 1 min at 3.75 µM. Here is the method: as §1
Data set [6] has as its system human erythrocytes. The data set can be described thus: Hemolytic activity. Conditions: 1% human erythrocytes in PBS, 45 min, 37 °C, absorbance 540 nm, 30% lysis threshold, peptides up to 60 µM, triplicate, single donor. The data set is classed as cell-based. Here is the method:
Whole blood was collected from healthy volunteers after obtaining informed consent, using Vacuette EDTA tubes (Greiner Bio-One). […] For hemolytic assessment, 180 μL of the prepared erythrocyte suspension was mixed with 20 μL of serially diluted peptide solutions (ranging from 60 to 0.03 μM in PBS).

Data set [7] concerns human keratinocytes and dermal fibroblasts. The data set can be described thus: Cytotoxicity summary over human skin cells. Type of data set: cell-based. The note with it: 24 h. Here is the method: as §2
Where [8] appears, read: DMEM 2% FBS, concentration causing >30% membrane permeation.
The mark [9] stands for this setting: WST-1, concentration causing <70% metabolic activity.

As for “Ac-LKRVWKRVFKLLKRYWRQLKKPVR-NH2 (N-terminus and C-terminus assumed) [SAAP-148, reference compound]”, in data set [1], the “Time to complete killing” value is no more than 5 min. Also, in data set [2], the “Reduction of bacterial load (CFU counts)” value is “significantly reduced bacterial load”. The “Cytotoxicity, LDH leakage” value in data set [3] (setting [8]) came to 1.88 µM; in data set [4] (setting [8]) it was 3.75 µM. In addition, the “Cytotoxicity, Metabolic activity” value in data set [3] (setting [9]) and in data set [4] (setting [9]) was 3.75 µM in each case. In data set [5], the “Log reduction in CFU” value is recorded as greater than 3 log. In data set [6], the “Hemolytic concentration (HC) < 30%” value turned out to be 0.47 µM. The “Cytotoxic thresholds, WST-1 and LDH” value in data set [7] was in the range of 1.88 to 3.75 µM.
